Measurements taken from US20260364040A1, “MONO- AND BIS-NITROSYLATED PROPANEDIOLS FOR USE IN THE TREATMENT OF A THROMBOEMBOLIC DISEASE” (ATTGENO AB, priority 2023, published 2026).

Legend:
[1] = rabbit model, Cederqvist et al. 1994; cited from earlier work
[2] = system: SFLLRN (PAR-1 agonist) stimulated platelets in human whole blood; assay: Platelet aggregation in human whole blood (impedance, Multiplate aggregometer); type: cell-based; conditions: drug added 2 min prior to SFLLRN, impedance 10 min, AUC, n=4
Procedure: FIG. 8: Platelet aggregation in whole blood. Suspensions of human blood were stimulated by the PAR-1 agonist […] in the absence (open bar) and presence of either PDNO (black bar) or nitroglycerine (grey bar). The NO-donating drugs were introduced to the blood 2 min prior to SFLLRN. Platelet aggregation response was analysed as increases in impedance over a period of 10 min and is expressed as area under the curve. The bars represent mean value and standard deviation (n=4).
Potential anti-thrombotic effect of PDNO in vitro was evaluated by analysing aggregation responses to the thrombin mimetic hexapeptide SFLLRN. […]
Heparinized human or pig blood (0.5 ml) was diluted 1:1 with Krebs-Ringer glucose (KRG) buffer (isotone saline, pH 7.4). […] Platelet aggregation in vitro (human blood) and ex vivo (pig blood) was measured as increase in electrical impedance between two platinum electrodes. […]
In the in vitro experiments, PDNO or nitroglycerine (used as control drug) was introduced 2 min prior to the hexapeptide SFLLRN. […] Aggregation responses were registered during 10 min and expressed as area under curve.
Platelet aggregation in whole blood (human blood with heparin as anticoagulant) was analysed as increases in electrical resistance (impedance changes between two platinum electrodes) using a Multiplate aggregometer.

[3] = system: VASP (Ser239 phosphorylation), NO/cyclic GMP signalling in human platelets; assay: Ser239-specific VASP phosphorylation in isolated human platelets (Western blotting); type: cell-based; conditions: 5 min exposure, unstimulated and SFLLRN-stimulated platelets, n=3
Procedure: FIG. 9: Increases in Ser 239-specific VASP phosphorylation in platelets. Suspensions of isolated human blood platelets were stimulated by either PDNO or nitroglycerine. The platelets were exposed to the NO-donors for 5 min followed by Western immuno blotting for phosphoVASP detection. These experiments were conducted in unstimulated and SFLLRN-stimulated platelets. The PAR-1 agonist was added 2 min after PDNO/nitroglycerine. The bars represent mean value and standard deviation (n=3).
In platelets and vascular smooth muscle cells, the cytoskeleton-binding protein vasodilator-stimulated phosphoprotein (VASP) is a main molecular target for NO/cyclic GMP signalling pathway. Ser239 specific phosphorylation of VASP following NO exposure of platelets is believed to be a pivotal molecular mechanism underlying anti-aggregatory/antithrombotic effects of NO. The effect of PDNO on Ser239-specific VASP phosphorylation was analysed by Western (immuno) blotting.
Aliquots of isolated platelet suspensions were exposed to either PDNO or nitroglyceine for 5 min. This series of experiments were conduced both on resting and SFLLRN-stimulated platelets.
Specifically, NO/cyclic GMP-induced phosphorylation of Ser239 on vasodilator-stimulated phosphoproteins (VASP) was detected by Western blotting. […]

[4] = Circulation times and in vivo half-life estimation from injections and infusions; design: species or system pig
Procedure: Intraarterial injections in the left CCA and left CFA and central intravenous injections (PDNO 0.5-4 micromol) were used to estimate in vivo half-life of PDNO in anesthetized, instrumented pigs (n=2). Regional blood flow, mean systemic arterial pressure (MAP), end-tidal nitric oxide (ETNO) and arterial blood gases were measured.
In addition, 10 ml of 5% sodium bicarbonate solution was injected at these sites.
Between the local intraarterial infusion routes, intravenous infusions in the central venous catheter at four doses (3, 10, 30 and 100 nmol kg^−1 min^−1, 10 minutes per dose) were given for reference. There was a washout period of 60 minutes between the PDNO administration.
Primary outcome was effects on regional blood flow, systemic blood pressure and end-tidal nitric oxide (ETNO). […]
The median (25-75 percentiles) circulation times from the carotid and femoral intraarterial injection sites were to first exhalation with increased ETNO 13.5 s (12.3-15.4, n=13) s and 13.7 s (12.9-15.2, n=9), respectively, and from the central intravenous injection site 5.0 s (4.3-5.9, n=29) and 5.3 s (3.3-5.8, n=9). The circulation times between the carotid and femoral intraarterial injection sites to the central intravenous injection site were calculated to 8.5 s and 8.4 s as depicted in Table 1 below.

Row | SMILES | correlation between in vivo generation of NO and effects on blood pressure [1] | also measured
1 | CC(C)CO[N+](=O)[O-] [isobutyl nitrate] | significant correlation between the in vivo generation of NO and effects on blood pressure | –
2 | O=[N+]([O-])OCC(CO[N+](=O)[O-])O[N+](=O)[O-] [nitroglycerine, 1,2,3-propanetriol-nitrate] | significant correlation between the in vivo generation of NO and effects on blood pressure | SFLLRN-induced platelet aggregation, whole blood [2]: not nitroglycerine significantly inhibited SFLLRN-induced platelet aggregation; Ser239-specific VASP phosphorylation [3]: not nitroglycerine provoked a significant increase in Ser239-specific VASP phosphorylation
3 | O=C([O-])O.[Na+] [Sodium bicarbonate] | – | Circulation time (median) between intraarterial and intravenous injection site ([4]; carotid artery and intravenous): 7.0 s; Circulation time (median) between intraarterial and intravenous injection site ([4]; femoral artery and intravenous): 8.9 s
4 | CCON=O [ethyl nitrite] | significant correlation between the in vivo generation of NO and effects on blood pressure | –
5 | CCCCON=O [butyl nitrite] | significant correlation between the in vivo generation of NO and effects on blood pressure | –
6 | CC(C)CCON=O [isoamyl nitrite] | significant correlation between the in vivo generation of NO and effects on blood pressure | –
7 | CC(C)CON=O [isobutyl nitrite] | significant correlation between the in vivo generation of NO and effects on blood pressure | –
